# Experimental data from patent US8003082B2, “Photostable organic sunscreen composition” (Merck Patent GmbH, priority 2003, dated 2011).
# Assays:
# [1] = In vitro critical wavelength and SPF; conditions: Avobenzone (2%) in the presence of HMS (6%) and Oxynex ST (2%)
# Procedure: The target SPF range can be achieved with a combination of both inorganic and organic chromophoric compounds. SPF is determined by techniques well known in the art, on human skin as described in the Federal Register, Aug. 25, 1978, Vol. 43, No. 166, pages 38259-38269 (Sunscreen Drug Products for Over-The-Counter Human Use, Food and Drug Administration). SPF values can also be approximated using in-vitro models as described, for example, in J. Soc. Cosmet. Chem. 44:127-133 (May/June 1989).
# [2] = Photostabilization of Avobenzone in formulation, thin films between glass slides under UV-B light, loss in absorption; assay type: physicochemical
# Procedure: Photostabilization of Avobenzone (in formulation) was performed using thin films (about 50-100μ thick, transmission signals in the non-absorbing regions must be above 85%) of formulated materials placed between two glass slides and then irradiated under UV-B light (Q-U-V Accelerated Weather Tester, The Q Panel Company). Photodegradation of Avobenzone was calculated from the relative loss in absorption of Avobenzone in formulated products before and after irradiation. 1 hour irradiation under UV-B light is equal to about 1.4 MED (minimal erythemal dose). A Beckman Coulter DU-640 spectrophotometer at a scan speed of 120 nm/min was used for this study. All spectra were recorded from 200 to 600 nm.
# [3] = Solubility of Avobenzone in Oxynex ST + OMC on storage; assay type: physicochemical; design: key: Ppt = precipitate
# [4] = Solubility of Avobenzone in Oxynex ST + HMS on storage; assay type: physicochemical; design: key: Ppt = precipitate
# Procedure: The solubility of Avobenzone was tested in various ratios of Oxynex® ST and HMS.
# [5] = Diphenylpicryl Hydrazide (DPPH) antioxidant test; assay type: biochemical; conditions: DPPH test method
# Procedure: Di-2-ethylhexyl-3,5-dimethoxy-4-hydroxy-benzalmalonate is a yellow viscous liquid having a λmax at 332 nm (MeOH, εmax 18,600 cm^−1 mol^−1) or 337 nm (EtOH:H2O/70:30, εmax 19,840 cm^−1 mol^−1).
# A DPPH concentrate (2.5×) of 25 mg of 1,1-Diphenyl-2-Picyrl-Hydrazyl ACS#1898-66-4 (Sigma #D-9132, lot 99H3601) dissolved in 250 mL ethanol (USP), is prepared fresh on the measurement date. A DPPH working solution is then prepared by diluting 100 mL of this concentrate to a final volume of 250 mL (100 μM/mL). A blank 13×100 mm borosilicate glass screw top tube of ethanol (USP) is used to zero the spectrometer (Milton Roy, Spectronic 20+) at 517 nm and a control tube of DPPH working solution is measured under identical conditions, and taken as 0% activity. […] After 20 minutes, the absorbance of each sample is read at 517 nm.
# The percent reducing activity (% RA) is calculated using the following equation: […]
# Where A(0) is the absorbance value of the DPPH working solution at 517 nm zeroed against an ethanol blank and A(20) is the absorbance at 517 nm, 20 minutes after combining the antioxidant with the DPPH working solution.
# The concentration of antioxidant (mg/ml) in the final assay mixture is calculated based on the dilution of respective aliquots of each compound in the final assay volume and % RA tabulated and plotted as percent activity at each concentration in the dilution series: […]
compound,measurement,setting,value
"COc1ccc(C(=O)CC(=O)c2ccc(C(C)(C)C)cc2)cc1 [Avobenzone, 4-(tert-butyl)-4′-methoxydibenzoylmethane]",SPF,[1],> 30
same,critical wavelength,[1],appropriate
same,Avobenzone stability,[2],24%
same,Solubility of Avobenzone in the Oxynex ® ST Photostabilizer + OMC,"[3]; Avobenzone/Oxynex ST/OMC 20/20/60, storage 4° C., 1 week",Clear
same,Solubility of Avobenzone in the Oxynex ® ST Photostabilizer + OMC,"[3]; Avobenzone/Oxynex ST/OMC 20/20/60, storage 4° C., 2 weeks",Crystal?
same,Solubility of Avobenzone in the Oxynex ® ST Photostabilizer + OMC,"[3]; Avobenzone/Oxynex ST/OMC 20/20/60, storage 4° C., 48 hr",Clear
same,Solubility of Avobenzone in the Oxynex ® ST Photostabilizer + OMC,"[3]; Avobenzone/Oxynex ST/OMC 20/20/60, storage RT, 1 week",Clear
same,Solubility of Avobenzone in the Oxynex ® ST Photostabilizer + OMC,"[3]; Avobenzone/Oxynex ST/OMC 20/20/60, storage RT, 2 weeks",Clear
same,Solubility of Avobenzone in the Oxynex ® ST Photostabilizer + OMC,"[3]; Avobenzone/Oxynex ST/OMC 20/20/60, storage RT, 48 hr",Clear
same,Solubility of Avobenzone in the Oxynex ® ST Photostabilizer + OMC,"[3]; Avobenzone/Oxynex ST/OMC 25/25/50, storage 4° C., 1 week",Ppt
same,Solubility of Avobenzone in the Oxynex ® ST Photostabilizer + OMC,"[3]; Avobenzone/Oxynex ST/OMC 25/25/50, storage 4° C., 2 weeks",Ppt
same,Solubility of Avobenzone in the Oxynex ® ST Photostabilizer + OMC,"[3]; Avobenzone/Oxynex ST/OMC 25/25/50, storage 4° C., 48 hr",Clear
same,Solubility of Avobenzone in the Oxynex ® ST Photostabilizer + OMC,"[3]; Avobenzone/Oxynex ST/OMC 25/25/50, storage RT, 1 week",Clear
same,Solubility of Avobenzone in the Oxynex ® ST Photostabilizer + OMC,"[3]; Avobenzone/Oxynex ST/OMC 25/25/50, storage RT, 2 weeks",Crystal?
same,Solubility of Avobenzone in the Oxynex ® ST Photostabilizer + OMC,"[3]; Avobenzone/Oxynex ST/OMC 25/25/50, storage RT, 48 hr",Clear
same,Solubility of Avobenzone in the Oxynex ® ST Photostabilizer + OMC,"[3]; Avobenzone/Oxynex ST/OMC 30/20/50, storage 4° C., 48 hr",Few
same,Solubility of Avobenzone in the Oxynex ® ST Photostabilizer + OMC,"[3]; Avobenzone/Oxynex ST/OMC 30/20/50, storage RT, 48 hr",Few
same,Solubility of Avobenzone in the Oxynex ® ST Photostabilizer + HMS,"[4]; Avobenzone/Oxynex ST/HMS 15/15/70, storage 4° C., 1 week",Clear
same,Solubility of Avobenzone in the Oxynex ® ST Photostabilizer + HMS,"[4]; Avobenzone/Oxynex ST/HMS 15/15/70, storage 4° C., 2 weeks",Crystal?
same,Solubility of Avobenzone in the Oxynex ® ST Photostabilizer + HMS,"[4]; Avobenzone/Oxynex ST/HMS 15/15/70, storage 4° C., 3 weeks",Crystal?
same,Solubility of Avobenzone in the Oxynex ® ST Photostabilizer + HMS,"[4]; Avobenzone/Oxynex ST/HMS 15/15/70, storage 4° C., 6 weeks",Ppt
same,Solubility of Avobenzone in the Oxynex ® ST Photostabilizer + HMS,"[4]; Avobenzone/Oxynex ST/HMS 15/15/70, storage 4° C., 24 hr",Clear
same,Solubility of Avobenzone in the Oxynex ® ST Photostabilizer + HMS,"[4]; Avobenzone/Oxynex ST/HMS 15/15/70, storage RT, 1 week",Clear
same,Solubility of Avobenzone in the Oxynex ® ST Photostabilizer + HMS,"[4]; Avobenzone/Oxynex ST/HMS 15/15/70, storage RT, 2 weeks",Clear
same,Solubility of Avobenzone in the Oxynex ® ST Photostabilizer + HMS,"[4]; Avobenzone/Oxynex ST/HMS 15/15/70, storage RT, 3 weeks",Clear
same,Solubility of Avobenzone in the Oxynex ® ST Photostabilizer + HMS,"[4]; Avobenzone/Oxynex ST/HMS 15/15/70, storage RT, 6 weeks",Clear
same,Solubility of Avobenzone in the Oxynex ® ST Photostabilizer + HMS,"[4]; Avobenzone/Oxynex ST/HMS 15/15/70, storage RT, 24 hr",Clear
same,Solubility of Avobenzone in the Oxynex ® ST Photostabilizer + HMS,"[4]; Avobenzone/Oxynex ST/HMS 20/20/60, storage 4° C., 1 week",Clear
same,Solubility of Avobenzone in the Oxynex ® ST Photostabilizer + HMS,"[4]; Avobenzone/Oxynex ST/HMS 20/20/60, storage 4° C., 2 weeks",Crystal?
same,Solubility of Avobenzone in the Oxynex ® ST Photostabilizer + HMS,"[4]; Avobenzone/Oxynex ST/HMS 20/20/60, storage 4° C., 3 weeks",Crystal?
same,Solubility of Avobenzone in the Oxynex ® ST Photostabilizer + HMS,"[4]; Avobenzone/Oxynex ST/HMS 20/20/60, storage 4° C., 6 weeks",Ppt
same,Solubility of Avobenzone in the Oxynex ® ST Photostabilizer + HMS,"[4]; Avobenzone/Oxynex ST/HMS 20/20/60, storage 4° C., 24 hr",Clear
same,Solubility of Avobenzone in the Oxynex ® ST Photostabilizer + HMS,"[4]; Avobenzone/Oxynex ST/HMS 20/20/60, storage RT, 1 week",Clear
same,Solubility of Avobenzone in the Oxynex ® ST Photostabilizer + HMS,"[4]; Avobenzone/Oxynex ST/HMS 20/20/60, storage RT, 2 weeks",Clear
same,Solubility of Avobenzone in the Oxynex ® ST Photostabilizer + HMS,"[4]; Avobenzone/Oxynex ST/HMS 20/20/60, storage RT, 3 weeks",Clear
same,Solubility of Avobenzone in the Oxynex ® ST Photostabilizer + HMS,"[4]; Avobenzone/Oxynex ST/HMS 20/20/60, storage RT, 6 weeks",Clear
same,Solubility of Avobenzone in the Oxynex ® ST Photostabilizer + HMS,"[4]; Avobenzone/Oxynex ST/HMS 20/20/60, storage RT, 24 hr",Clear
same,Solubility of Avobenzone in the Oxynex ® ST Photostabilizer + HMS,"[4]; Avobenzone/Oxynex ST/HMS 25/25/50, storage 4° C., 1 week",Ppt
same,Solubility of Avobenzone in the Oxynex ® ST Photostabilizer + HMS,"[4]; Avobenzone/Oxynex ST/HMS 25/25/50, storage 4° C., 2 weeks",Ppt
same,Solubility of Avobenzone in the Oxynex ® ST Photostabilizer + HMS,"[4]; Avobenzone/Oxynex ST/HMS 25/25/50, storage 4° C., 3 weeks",Ppt
same,Solubility of Avobenzone in the Oxynex ® ST Photostabilizer + HMS,"[4]; Avobenzone/Oxynex ST/HMS 25/25/50, storage 4° C., 6 weeks",Ppt
same,Solubility of Avobenzone in the Oxynex ® ST Photostabilizer + HMS,"[4]; Avobenzone/Oxynex ST/HMS 25/25/50, storage 4° C., 24 hr",Clear
same,Solubility of Avobenzone in the Oxynex ® ST Photostabilizer + HMS,"[4]; Avobenzone/Oxynex ST/HMS 25/25/50, storage RT, 1 week",Clear
same,Solubility of Avobenzone in the Oxynex ® ST Photostabilizer + HMS,"[4]; Avobenzone/Oxynex ST/HMS 25/25/50, storage RT, 2 weeks",Crystal?
same,Solubility of Avobenzone in the Oxynex ® ST Photostabilizer + HMS,"[4]; Avobenzone/Oxynex ST/HMS 25/25/50, storage RT, 3 weeks",Ppt
same,Solubility of Avobenzone in the Oxynex ® ST Photostabilizer + HMS,"[4]; Avobenzone/Oxynex ST/HMS 25/25/50, storage RT, 6 weeks",Ppt
same,Solubility of Avobenzone in the Oxynex ® ST Photostabilizer + HMS,"[4]; Avobenzone/Oxynex ST/HMS 25/25/50, storage RT, 24 hr",Clear
same,Solubility of Avobenzone in the Oxynex ® ST Photostabilizer + HMS,"[4]; Avobenzone/Oxynex ST/HMS 30/30/40, storage 4° C., 1 week",Ppt
same,Solubility of Avobenzone in the Oxynex ® ST Photostabilizer + HMS,"[4]; Avobenzone/Oxynex ST/HMS 30/30/40, storage 4° C., 2 weeks",Ppt
same,Solubility of Avobenzone in the Oxynex ® ST Photostabilizer + HMS,"[4]; Avobenzone/Oxynex ST/HMS 30/30/40, storage 4° C., 3 weeks",Ppt
same,Solubility of Avobenzone in the Oxynex ® ST Photostabilizer + HMS,"[4]; Avobenzone/Oxynex ST/HMS 30/30/40, storage 4° C., 6 weeks",Ppt
same,Solubility of Avobenzone in the Oxynex ® ST Photostabilizer + HMS,"[4]; Avobenzone/Oxynex ST/HMS 30/30/40, storage 4° C., 24 hr",Clear
same,Solubility of Avobenzone in the Oxynex ® ST Photostabilizer + HMS,"[4]; Avobenzone/Oxynex ST/HMS 30/30/40, storage RT, 1 week",Ppt
same,Solubility of Avobenzone in the Oxynex ® ST Photostabilizer + HMS,"[4]; Avobenzone/Oxynex ST/HMS 30/30/40, storage RT, 2 weeks",Ppt
same,Solubility of Avobenzone in the Oxynex ® ST Photostabilizer + HMS,"[4]; Avobenzone/Oxynex ST/HMS 30/30/40, storage RT, 3 weeks",Ppt
same,Solubility of Avobenzone in the Oxynex ® ST Photostabilizer + HMS,"[4]; Avobenzone/Oxynex ST/HMS 30/30/40, storage RT, 6 weeks",Ppt
same,Solubility of Avobenzone in the Oxynex ® ST Photostabilizer + HMS,"[4]; Avobenzone/Oxynex ST/HMS 30/30/40, storage RT, 24 hr",Clear
"CCCCC(CC)COC(=O)C(=Cc1cc(OC)c(O)c(OC)c1)C(=O)OCC(CC)CCCC (stereo not drawn) [Oxynex ST, Di-(2-Ethylhexyl)-3,5-dimethoxy-4-hydroxy benzylidene malonate]",antioxidant activity (IC50),[5],85 ± 8 mg/L
"CCCCC(CC)COC(=O)c1ccc2cc(C(=O)OCC(CC)CCCC)ccc2c1 (stereo not drawn) [TQ, Di-2-ethylhexyl-napthylate]",stabilization of Avobenzone,"[2]; combined with Homosalate, ratio (w/w) 2:6:2",failed to stabilize
same,effect on the photostabilization of Avobenzone,[2]; photostabilizer used alone,practically no effect
